# According to patent publication US4342762A, “Basic ethers and pharmaceutical compositions containing the same” (Egyt Gyogyszervegyeszeti Gyar, priority 1979, dated 1982):
# Key:
# [1] = acute oral toxicity, graphic method of Litchfield-Wilcoxon, 4 days observation; conditions: mouse, in vivo
# Protocol: The analgesic effect of the new compounds according to the invention was determined by the method of Wirth et al. (Wirth, W., Gosswald, R., Horlein. K., Risse, Kl. H., Kreiskott, H.: Arch. Int. Pharmacodyn. 115, 1; (1958)). 0.4 ml of 0.5% acetic acid was administered i.p. to white mice, and the characteristic "writhing" reactions were counted after 5 minutes. […] The results are given in Table I. The toxicity data determined on white mice of both sexes weighing 18-24 g belonging to the strain CFLP are also given. Administration was effected with an oral dose of 20 ml/kg. After treatment the animals were kept under observation for 4 days. The toxicity data (LD50 mg/kg) were determined by the graphic method of Litchfield-Wilcoxon [Litchfield, J.T., Wilcoxon, E. W., J Pharmacol. Exp. Therap. 96, 99; (1949)].
# [2] = tested on: white mice; assay: analgesic effect, inhibition of acetic acid "writhing" reactions (Wirth et al.); assay type: in vivo; conditions: for ED50: Mus musculus, read-out: Analgesic effect ED50; for Analgesic effect Therap.index: therapeutic index
# Protocol: The analgesic effect of the new compounds according to the invention was determined by the method of Wirth et al. (Wirth, W., Gosswald, R., Horlein. K., Risse, Kl. H., Kreiskott, H.: Arch. Int. Pharmacodyn. 115, 1; (1958)). 0.4 ml of 0.5% acetic acid was administered i.p. to white mice, and the characteristic "writhing" reactions were counted after 5 minutes. The compounds to be tested had been orally administered an hour before the administration of the acetic acid. The activity is expressed as a percentage of the inhibition referred to the data observed on the control group. The results are given in Table I. The toxicity data determined on white mice of both sexes weighing 18-24 g belonging to the strain CFLP are also given. Administration was effected with an oral dose of 20 ml/kg. After treatment the animals were kept under observation for 4 days. The toxicity data (LD50 mg/kg) were determined by the graphic method of Litchfield-Wilcoxon [Litchfield, J.T., Wilcoxon, E. W., J Pharmacol. Exp. Therap. 96, 99; (1949)].
# [3] = tested on: white mice; assay: inhibition of pentetrazole convulsion (modified Banziger and Hane); assay type: in vivo; conditions: for ED50: Mus musculus, oral; for Inhibition of pentetrazole convulsion Th. I.: therapeutic index
# Protocol: (§1) The antiepileptic effect was investigated on white mice, after oral administration. The inhibition of maximal electroshock (MES) was determined by the method of Swinyard et al. [Swinyard et al. J. Pharmacol. Exp. Ther. 106, 319-330 (1952)]. White mice weighing 20-25 g were subjected to electric shock through corneal electrodes (Parameters: 50 Hz, 45 mA, 0.4 sec.). The total inhibition of the tonic extensor convulsion was considered as criterion of the anti-convulsive effect. The test-substance had been orally administered one hour before the electroshock. The inhibition of pentetrazole convulsion was determined on white mice by the modified method of Banziger and Hane [Banziger, R., Hane, L.D. Arch. Int. Pharmacodyn. 167, 245-249; (1967)]. I." stands for "therapeutic index."
# [4] = tested on: white mice; assay: inhibition of motility, Dews apparatus (Borsy); assay type: in vivo; conditions: for ED50: Mus musculus, oral pretreatment 30 minutes, observation 30 minutes; for Inhibition of motility Th.I.: therapeutic index
# Protocol: (§2) The effect on the inhibition of the oriental activity (inhibition of the motility) was investigated on white mice in a Dews apparatus applied with 8 canals by the method of Borsy [Borsy, J., Csanyi, E., Lazar, I., Arc. Int. Pharmacodyn. 124, 1-2 (1960)]. After an oral pretreatment of 30 minutes the number of light-interruptions due to the movements of groups consisting of 3-3 mice was registered. The observation lasted for 30 minutes. The effect of the compounds exerted on the duration of hexobarbital-narcosis was tested by the method of Kaergaard [Kaergaard, N. C., Magnussen, M. P., Kampmann, E., Frey, H. H., Arc. Int. Pharmacodyn. 2, 170; (1967)]. Groups of animals consisting of 6-6 mice were treated.
# [5] = tested on: mice; assay: potentiating of hexobarbital-narcosis (Kaergaard); assay type: in vivo; conditions: for ED50: Mus musculus, iv, 40 mg/kg hexobarbital i.v., positive: sleeping period at least 2.5 times control; for Potentiating of narcosis Th.I.: therapeutic index
# Protocol: as §2
# [6] = tested on: white mice; assay: inhibition of maximal electroshock (MES) (Swinyard et al.); assay type: in vivo; conditions: for ED50: Mus musculus, oral, 1 hour before electroshock 50 Hz, 45 mA, 0.4 sec, total inhibition of tonic extensor convulsion; for Inhibition of MES Th. I.: therapeutic index
# Protocol: as §1
# [7] = tested on: white mice; assay: inhibition of nicotine-lethality (Stone); assay type: in vivo; conditions: for ED50: Mus musculus, oral, 1 hour before 1.4 mg/kg nicotine
# Protocol: The inhibition of nicotine-lethality was determined on white mice by the method of Stone [Stone, C. A., Mecklenburg, K. L., Torchiana, M. L., Arch. Int. Pharmacodyn.
# [8] = oral, 20 ml/kg, both sexes 18-24 g, 4 days observation
# [9] = oral, 1 hour before i.p. 0.4 ml 0.5% acetic acid
smiles,measurement,setting,value
"COc1ccc(C2(OCCCN(C)C)CC3CCC2(C)C3(C)C)cc1 (racemic) [Example 22, (±)-2-(p-methoxyphenyl)-2-(3'-dimethylaminopropoxy)-1,7,7-trimethyl-bicyclo(2,2,1)heptane]",LD50 at 96 h,[1]; [8],1000 mg/kg
same,ED50,[2]; [9],72 mg/kg
same,Analgesic effect Therap.index,[2],13.8
same,ED50,[3],96 mg/kg
same,Inhibition of pentetrazole convulsion Th. I.,[3],10.4
same,ED50,[4],100 mg/kg
same,Inhibition of motility Th.I.,[4],10.0
same,ED50,[5],80 mg/kg
same,Potentiating of narcosis Th.I.,[5],12.5
"CCN(CC)CCCOC1(Cc2ccccc2)CC2CCC1(C)C2(C)C (racemic) [Example 6, (±)-2-benzyl-2-(3'-diethylaminopropoxy)-1,7,7-trimethyl-bicyclo(2,2,1)heptane]",LD50 at 96 h,[1]; [8],2000 mg/kg
same,ED50,[2]; [9],50 mg/kg
same,Analgesic effect Therap.index,[2],40.0
same,ED50,[6],120 mg/kg
same,Inhibition of MES Th. I.,[6],16.7
same,ED50,[3],54 mg/kg
same,Inhibition of pentetrazole convulsion Th. I.,[3],37.0
same,ED50,[4],100 mg/kg
same,Inhibition of motility Th.I.,[4],20.0
same,ED50,[5],80 mg/kg
same,Potentiating of narcosis Th.I.,[5],25.0
"CN1C(=O)OC(C)(C)C1=O [Trimethadion, 3,5,5-Trimethyl-2,4-oxazolidinedione, reference compound]",ED50,[6],4.9 mg/kg
same,Inhibition of MES Th. I.,[6],4.3
same,ED50,[3],400 mg/kg
same,Inhibition of pentetrazole convulsion Th. I.,[3],5.3
"CCN(CC)CCCOC1(c2cccs2)CC2CCC1(C)C2(C)C (racemic) [Example 19, (±)-2-(3'-diethylaminopropoxy)-2-(2""-thienyl)-1,7,7-trimethyl-bicyclo(2,2,1)heptane]",LD50 at 96 h,[1]; po,1000 mg/kg
same,ED50,[2]; [9],120 mg/kg
same,Analgesic effect Therap.index,[2],8.3
same,ED50,[5],50 mg/kg
same,Potentiating of narcosis Th.I.,[5],20.0
"CC(=O)Nc1ccc(O)cc1 [Paracetamole, N-(4-Hydroxyphenyl)-acetamide, reference compound]",ED50,[2]; [9],180 mg/kg
CC1(C)C2CCC1(C)C(Cc1ccccc1)(OCCCN1CCN(Cc3ccccc3)CC1)C2 (racemic) [Example 4],LD50 at 96 h,[1]; [8],2000 mg/kg
same,ED50,[2]; [9],200 mg/kg
same,Analgesic effect Therap.index,[2],10.0
"CN(C)CCCOC1(c2cccs2)CC2CCC1(C)C2(C)C (racemic) [Example 18, (±)-2-(3'-dimethylaminopropoxy)-2-(2""-thienyl)-1,7,7-trimethyl-bicyclo(2,2,1)heptane]",LD50 at 96 h,[1]; po,1400 mg/kg
same,ED50,[2]; [9],140 mg/kg
same,Analgesic effect Therap.index,[2],10.0
"CN(C)CCCOC1(c2ccccc2)CC2CCC1(C)C2(C)C (racemic) [Example 14, (±)-2-(3'-dimethylaminopropoxy)-2-phenyl-1,7,7-trimethyl-bicyclo(2,2,1)heptane]",LD50 at 96 h,[1]; [8],1000 mg/kg
same,ED50,[2]; [9],50 mg/kg
same,Analgesic effect Therap.index,[2],20.0
same,ED50,[4],38 mg/kg
same,Inhibition of motility Th.I.,[4],26.3
same,ED50,[5],64 mg/kg
same,Potentiating of narcosis Th.I.,[5],15.6
"CN(C)CCCOC1(Cc2ccc(Cl)cc2)CC2CCC1(C)C2(C)C (racemic) [Example 11, (±)-2-(p-chloro-benzyl)-2-(3'-dimethylaminopropoxy)-1,7,7-trimethyl-bicyclo(2,2,1)heptane]",LD50 at 96 h,[1]; [8],1500 mg/kg
same,ED50,[2]; [9],75 mg/kg
same,Analgesic effect Therap.index,[2],20.0
same,ED50,[4],130 mg/kg
same,Inhibition of motility Th.I.,[4],11.5
same,ED50,[5],130 mg/kg
same,Potentiating of narcosis Th.I.,[5],11.5
"CN(C)CCOC1(c2ccccc2)CC2CCC1(C)C2(C)C (racemic) [Example 15, (±)-2-(2'-dimethylaminoethoxy)-2-phenyl-1,7,7-trimethyl-bicyclo(2,2,1)heptane]",LD50 at 96 h,[1]; [8],900 mg/kg
same,ED50,[2]; po,23 mg/kg
same,Analgesic effect Therap.index,[2],39.0
same,ED50,[7],30 mg/kg
same,Inhibition of nicotine-lethality Therapeutic index,[7],30.0
same,ED50,[5],40 mg/kg
same,Potentiating of narcosis Th.I.,[5],22.5
"CCN(CC)CCOC1(c2cccs2)CC2CCC1(C)C2(C)C (racemic) [Example 17, (±)-2-(2'-diethylaminoethoxy)-2-(2""-thienyl)-1,7,7-trimethyl-bicyclo(2,2,1)heptane]",LD50 at 96 h,[1]; [8],980 mg/kg
same,ED50,[2]; po,50 mg/kg
same,Analgesic effect Therap.index,[2],19.6
same,ED50,[3],60 mg/kg
same,Inhibition of pentetrazole convulsion Th. I.,[3],16.3
same,ED50,[7],50 mg/kg
"OC(CCN1CCCCC1)(c1ccccc1)C1CCCCC1 (stereo not drawn) [Trihexyphenidyl, α-Cyclohexyl-α-phenyl-1-piperidine-propanol, reference compound]",ED50,[7],40 mg/kg
same,Inhibition of nicotine-lethality Therapeutic index,[7],9.13
"CC(C)N(CCCOC1(Cc2ccccc2)CC2CCC1(C)C2(C)C)C(C)C (racemic) [Example 5, (±)-2-benzyl-2-(3'-diisopropylaminopropoxy)-1,7,7-trimethyl-bicyclo(2,2,1)heptane]",LD50 at 96 h,[1]; [8],2000 mg/kg
same,ED50,[2]; [9],100 mg/kg
same,Analgesic effect Therap.index,[2],20.0
same,ED50,[6],380 mg/kg
same,Inhibition of MES Th. I.,[6],5.3
same,ED50,[3],140 mg/kg
same,Inhibition of pentetrazole convulsion Th. I.,[3],14.3
same,ED50,[4],190 mg/kg
same,Inhibition of motility Th.I.,[4],10.5
same,ED50,[5],120 mg/kg
same,Potentiating of narcosis Th.I.,[5],16.7
CCN(CC)CCOC1(Cc2ccc(Cl)cc2)CC2CCC1(C)C2(C)C (racemic) [Example 12],LD50 at 96 h,[1]; [8],2000 mg/kg
same,ED50,[2]; [9],100 mg/kg
same,Analgesic effect Therap.index,[2],20.0
same,ED50,[6],72 mg/kg
same,Inhibition of MES Th. I.,[6],27.7
same,ED50,[3],110 mg/kg
same,Inhibition of pentetrazole convulsion Th. I.,[3],18.2
same,ED50,[5],200 mg/kg
same,Potentiating of narcosis Th.I.,[5],10.0
"CC(COC1(c2ccc(Cl)cc2)CC2CCC1(C)C2(C)C)CN(C)C (single isomer, unassigned; (+)) [Example 13, (+)-2-[(3'-dimethylamino-2'-methyl)-propoxy]-2-(p-chloro-phenyl)-1,7,7-trimethyl-bicyclo(2,2,1)heptane]",LD50 at 96 h,[1]; po,2000 mg/kg
same,ED50,[2]; [9],200 mg/kg
same,Analgesic effect Therap.index,[2],10.0
same,ED50,[6],140 mg/kg
same,Inhibition of MES Th. I.,[6],14.3
same,ED50,[3],140 mg/kg
same,Inhibition of pentetrazole convulsion Th. I.,[3],14.3
same,ED50,[4],170 mg/kg
same,Inhibition of motility Th.I.,[4],11.8
"CCN(CC)CCCOC1(c2ccccc2)CC2CCC1(C)C2(C)C (racemic) [Example 16, (±)-2-(3-diethylaminopropoxy)-2-phenyl-1,7,7-trimethyl-bicyclo(2,2,1)heptane]",LD50 at 96 h,[1]; [8],700 mg/kg
same,ED50,[2]; [9],70 mg/kg
same,Analgesic effect Therap.index,[2],10.0
same,ED50,[6],30 mg/kg
same,Inhibition of MES Th. I.,[6],23.3
same,ED50,[3],60 mg/kg
same,Inhibition of pentetrazole convulsion Th. I.,[3],11.7
same,ED50,[5],20 mg/kg
same,Potentiating of narcosis Th.I.,[5],35.0
"CC(C)N(CCOC1(Cc2ccccc2)CC2CCC1(C)C2(C)C)C(C)C (racemic) [Example 3, (±)-2-benzyl-2-(2'-diisopropylaminoethoxy)-1,7,7-trimethyl-bicyclo(2,2,1) heptane]",LD50 at 96 h,[1]; [8],1250 mg/kg
same,ED50,[2]; [9],120 mg/kg
same,Analgesic effect Therap.index,[2],10.4
same,ED50,[5],120 mg/kg
same,Potentiating of narcosis Th.I.,[5],10.4
